Where two headings read alike, the source gives them in different places.
Legend:
[1] = tested on: WSSV; experiment: In vivo quinacrine assay and WSSV challenge experiment in shrimp; design: species or system Litopenaeus vannamei
Experimental: (§1) For the WSSV challenge experiment, groups of shrimp (14 shrimp per group) were injected either with WSSV (50 μl of 100× dilution of the virus stock) or with PBS as a negative control. These first injections were then immediately followed by a second injection of 50 μl of either QC (5 μg/g) or PBS. Pleopods were excised from 3 randomly selected shrimp from each group at 0, 1, 2, 6 and 9 days post-injection (dpi) and tested for WSSV infection as described below. A second replicate of this entire experiment was performed at the same time. No pleopods were collected from the shrimp in this second replicate. Instead, mortality was observed and recorded every 12 h.
A commercial WSSV diagnostic kit (IQ2000 WSSV Detection and Prevention System, GeneReach Biotechnology Corp.) was used to determine WSSV infection levels. Briefly, genomic DNA extracted from the shrimp pleopod samples was isolated using the DTAB/CTAB extraction procedure according to the manufacturer's instructions. Next, competitive nested PCR analysis was performed using the extracted DNA samples. The PCR products were analyzed by electrophoresis with a 2% agarose gel. WSSV infection levels were determined according to the pattern of bands indicated in the kit's instructions.

[2] = tested on: icp35 IRES; conditions: Sf9 cells, 48 h, relative to untreated
[3] = tested on: hepatitis C virus (HCV) IRES; conditions: dose-dependent; cited from earlier work
[4] = tested on: Encephalomyocarditis Virus (EMCV) IRES; conditions: dose-dependent; cited from earlier work
[5] = In vivo quinacrine dosage determination in shrimp (mortality); design: species or system Litopenaeus vannamei; conditions: injected 0.5, 2.5 or 5 μg/g body weight, 20 shrimp per group, 2 weeks
Experimental: To determine the optimal QC dosage for the challenge experiment, four groups of shrimp (20 shrimp per group) were injected with different doses ([…], 2.5 μg/g, or 5 μg/g body weight) of QC (10 mg/mL stock solution in PBS) or with PBS (negative control). The mortality of each group was observed and recorded every 12 h.
as §1

[6] = tested on: poliovirus IRES; conditions: dose-dependent; cited from earlier work
[7] = tested on: cellular p53 IRES; conditions: cited from earlier work
[8] = tested on: icp35 IRES; experiment: IRES activity under tunicamycin-induced ER stress, dual luciferase assay in Sf9 cells; type: cell-based, White spot syndrome virus; conditions: tunicamycin 2.5 μg/ml added 24 h post-transfection, 15 h of treatment
Experimental: After 15 h of treatment, cells were harvested. One replicate of the harvested cells was subjected to a dual luciferase assay as described above. The other replicate was subjected to Western blotting to monitor the level of the phosphorylated proteins. For this assay, 2× sample buffer was added to the cells and the mixture was boiled for 10 minutes. An aliquot (15 μl) was separated on 15% SDS-PAGE and transferred onto the PVDF membrane as described above. The blots were then blocked with 5% BSA in TBST (0.01% of Tween 20 in TBS buffer) for 1 h at RT, and probed with the commercial primary antibodies Phospho-eIF2α (Ser51) (Cell Signaling) or EIF2S1 (Abeam). The antibodies were diluted 1:1,000 in 2.5% non-fat milk in TBST and applied for 16 h at 4° C. This step was followed by washing three times for 10 min at RT with TBST. The blots were then probed with anti-Rabbit or anti-Mouse IgG secondary antibody (Santa Cruz Biotechnology) diluted 1:10,000 in 2.5% BSA in TBST for 1 hr at RT, and washed three times for 10 min at RT with TBST. Western Lightning® Plus-ECL reagents were used for visualization as described above.

Row | Compound | mortality rate after WSSV challenge ([1]; QC 5 μg/g injected immediately after WSSV inoculum, vs WSSV+PBS) | shrimp still alive ([1]; WSSV+QC group, QC 5 μg/g, 9 dpi) | WSSV infection level in surviving shrimp (IQ2000 nested competitive PCR) ([1]; WSSV+QC sample collection group, 1, 2, 6 and 9 dpi) | FL value (IRES-mediated firefly luciferase activity) ([2]; QC 25 μM) | FL/RL ratio ([2]; QC 25 μM) | FL value (IRES-mediated firefly luciferase activity) ([2]; QC 30 μM) | FL/RL ratio ([2]; QC 30 μM) | RL value (cap-dependent Renilla luciferase activity) ([2]; […], QC 25 μM or 30 μM) | IRES activity [3] | IRES activity [4] | survival of unchallenged shrimp [5] | IRES activity [6] | sensitivity of IRES to QC [7] | cap-dependent translation (RL activity) [8] | icp35 IRES-dependent translation (FL activity) [8]
1 | CCN(CC)CCCC(C)Nc1c2ccc(Cl)cc2nc2ccc(OC)cc12 (stereo not drawn) [QC, quinacrine dihydrochioride] | significantly reduced | over 70% | tested negative or had only a light infection | significantly reduced | significantly reduced | significantly reduced | significantly reduced | no significant effect | inhibited | inhibited | All but one of the shrimp (in the 0.5 μg/g group) survived | inhibited | not sensitive | – | –
2 | tunicamycin | – | – | – | – | – | – | – | – | – | – | – | – | – | inhibited | inhibited
